Tests used:
MEK1 activated ERK1 = target: T1, MEK1 activated ERK1 (Homo sapiens, UniProt P27361); assay: Omnia continuous-read kinase assay for potency against MEK1 activated ERK1; type: biochemical; details: MEK1 activated ERK1, ATP at KM; read-out: ERK1 Omnia WT ATP KM IC50
T1 construct: purchased Millipore (Billerica, Mass.) 14-439-K
Summary of the method: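 Apparent IC50 came from initial reaction slopes (RFU vs time) plotted against log inhibitor with a variable-slope fit. Reactions were started with ERK1 (4 nM final) added to 50 μM ATP, roughly at its appKM, and 10 μM Sox-conjugated ST17 peptide in 20 mM Tris pH 7.5, 5 mM MgCl2. Fluorescence was monitored every 71 seconds.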

[1] = tested on: ERK1/2 phosphorylation of p90RSK in HT29 cells; assay: pRSK MSD Assay in HT29 cells; type: cell-based; details: Homo sapiens, HT-29, read-out: ERK1/ERK2 PRSK MSD HT29 EC50
Summary of the method: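 Serum-starved HT29 cells (0.1% FBS overnight) treated with test compound for 120 min at 37° C, then lysed with protease and phosphatase inhibitors. Phospho-p90RSK quantified by MSD sandwich immunoassay: RSK capture antibody, phospho-RSK detection antibody plus Sulfo-tagged antibody, electrochemiluminescence read.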

[2] = tested on: HT-29 cells (colorectal adenocarcinoma); assay: Inhibition of cancer cell proliferation, HT-29 (CellTiterGlo, 72 hours); type: cell-based; details: Homo sapiens
Description: Measurement of Inhibition of Cancer Cell Proliferation (HT-29/Colorectal Adenocarcinoma)
The following protocol used an HT-29 cell line, which cell line is a model for colorectal adenocarcinoma. HT-29 cells were split and 3000 cells in 100 μl of growth medium were added per well of a flat-bottom 96-well plate. A two-fold test compound solution in serum-free RPM1640 was made, starting at 5,000 nM. Then, 3-fold serial dilutions were made across the plate from well 1 to well 11. Well 12, the last well in a row on the plate, was left as untreated control. 100 μl compound solutions were then transferred to the wells, so the total volume of media was 200 μl per well. Plates were returned to a 37° C. incubator, and the cells were cultured for 72 hours. To measure cell proliferation after 72 hours, media was discarded from the plates, 50 μl/well of fresh medium was added, and 50 μl CellTiterGlo solution was added (Promega Cat#G7573). The plate was covered with a dark lid and incubated for 10 min. A white sealing tape was applied to the bottom of the plate, and the plate was read in a luminescence plate reader. […] A 2-fold serial dilution was used to generate 8 cell densities from 50,000-390 cells per well in 50 μl media. 50 μl CellTiterGlo was added per well, and the plate was read in a luminescence plate reader after 10 min. The reading was plotted vs. cell number to generate a standard curve and the equation of the curve fit. The compound-treated sample luminescence readings were converted to cell numbers using the curve-fit equation. The percent of inhibition, using untreated control as 100% growth, was then calculated. GI50 was then calculated by GraphPad Prism.

T1 sequence (P27361 whole entry): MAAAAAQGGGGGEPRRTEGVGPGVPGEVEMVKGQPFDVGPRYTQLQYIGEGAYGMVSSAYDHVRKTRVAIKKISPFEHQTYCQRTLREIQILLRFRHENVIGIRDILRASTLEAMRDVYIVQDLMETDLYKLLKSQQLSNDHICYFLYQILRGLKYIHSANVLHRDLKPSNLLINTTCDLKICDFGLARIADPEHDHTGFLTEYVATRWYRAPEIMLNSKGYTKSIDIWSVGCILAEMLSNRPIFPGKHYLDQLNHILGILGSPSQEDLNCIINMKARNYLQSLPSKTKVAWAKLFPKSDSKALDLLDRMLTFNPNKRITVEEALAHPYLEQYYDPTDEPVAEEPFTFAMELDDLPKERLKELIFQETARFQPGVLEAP

IC50 (MEK1 activated ERK1) [µM] | EC50 [1] [µM] | GI50 [2] [µM] | Structure (SMILES)
0.101 to 0.5 | 0.101 to 0.5 | 0.501 to 0.999 | C=CC(=O)Nc1ccccc1Nc1nc(Nc2ccc(NS(C)(=O)=O)cc2OC)ncc1Cl [Compound I-185, N-(2-((5-chloro-2-((2-methoxy-4-(methylsulfonamido)phenyl)amino)pyrimidin-4-yl)amino)phenyl)acrylamide]
0.101 to 0.5 | 0.501 to 0.999 | > 1 | C=CC(=O)Nc1ccccc1Nc1nc(Nc2ccc(NC(=O)COC(C)=O)cc2OC)ncc1Cl [Compound I-183, 2-((4-((4-((2-acrylamidophenyl)amino)-5-chloropyrimidin-2-yl)amino)-3-methoxyphenyl)amino)-2-oxoethyl acetate]
0.101 to 0.5 | 0.501 to 0.999 | > 1 | C=CC(=O)Nc1ccccc1Nc1nc(Nc2ccc(NC(=O)CO)cc2OC)ncc1Cl [Compound I-186, N-(2-((5-chloro-2-((4-(2-hydroxyacetamido)-2-methoxyphenyl)amino)pyrimidin-4-yl)amino)phenyl)acrylamide]
0.101 to 0.5 | > 1 | > 1 | C=CC(=O)Nc1ccccc1Nc1nc(Nc2cc(C(N)=O)c(OCCCNC(=O)CCCC(=O)NCCCOCCOCCOCCCNC(=O)CCCC[C@@H]3SC[C@@H]4NC(=O)N[C@@H]43)cc2C)ncc1Cl [Compound I-299, N^1-(3-(4-((4-((2-acrylamidophenyl)amino)-5-chloropyrimidin-2-yl)amino)-2-carbamoyl-5-methylphenoxy)propyl)-N^5-(15-oxo-19-((3aS,4S,6aR)-2-oxohexahydro-1H-thieno[3,4-d]imidazol-4-yl)-4,7,10-trioxa-14-azanonadecyl)glutaramide]
0.101 to 0.5 | > 1 | > 1 | C=CC(=O)Nc1ccccc1Nc1nc(Nc2ccc(N(CCCN)C(C)=O)cc2OC)ncc1Cl [Compound I-167, N-(2-((2-((4-(N-(3-aminopropyl)acetamido)-2-methoxyphenyl)amino)-5-chloropyrimidin-4-yl)amino)phenyl)acrylamide]
0.101 to 0.5 | > 1 | > 1 | C=CC(=O)Nc1ccccc1Oc1nc(Nc2ccc(N3CCC[C@@H]3CO)cc2OC)ncc1C(N)=O [Compound I-263, (R)-4-(2-acrylamidophenoxy)-2-((4-(2-(hydroxymethyl)pyrrolidin-1-yl)-2-methoxyphenyl)amino)pyrimidine-5-carboxamide]
0.101 to 0.5 | 0.101 to 0.5 | 0.501 to 0.999 | C=CC(=O)Nc1ccccc1Nc1nc(Nc2ccc(F)cc2C)ncc1Cl [Compound I-209, N-(2-((5-chloro-2-((4-fluoro-2-methylphenyl)amino)pyrimidin-4-yl)amino)phenyl)acrylamide]
0.101 to 0.5 | 0.101 to 0.5 | 0.101 to 0.5 | C=CC(=O)Nc1ccccc1Nc1nc(Nc2cc(C(N)=O)ccc2C)ncc1C [Compound I-224, 3-(4-(2-acrylamidophenylamino)-5-methylpyrimidin-2-ylamino)-4-methyl benzamide]
0.101 to 0.5 | 0.501 to 0.999 | > 1 | C=CC(=O)Nc1ccccc1Nc1nc(Nc2ccc(N3CCC[C@@H]3C(N)=O)cc2C#N)ncc1Cl [Compound I-179, (R)-1-(4-((4-((2-acrylamidophenyl)amino)-5-chloropyrimidin-2-yl)amino)-3-cyanophenyl)pyrrolidine-2-carboxamide]
0.101 to 0.5 | > 1 | > 1 | C=CC(=O)Nc1ccccc1Nc1nc(NC2CCN(C(=O)CCCC(=O)NCCCOCCOCCOCCCNC(=O)CCCC[C@@H]3SC[C@@H]4NC(=O)N[C@@H]43)CC2)ncc1Cl [Compound I-300, 5-(4-((4-((2-acrylamidophenyl)amino)-5-chloropyrimidin-2-yl)amino)piperidin-1-yl)-5-oxo-N-(15-oxo-19-((3aS,4S,6aR)-2-oxohexahydro-1H-thieno[3,4-d]imidazol-4-yl)-4,7,10-trioxa-14-azanonadecyl)pentanamide]
0.101 to 0.5 | > 1 | > 1 | C=CC(=O)Nc1ccccc1Nc1nc(Nc2ccc(N(CCN)C(C)=O)cc2OC)ncc1Cl [Compound I-168, N-(2-((2-((4-(N-(2-aminoethyl)acetamido)-2-methoxyphenyl)amino)-5-chloropyrimidin-4-yl)amino)phenyl)acrylamide]
0.501 to 0.999 | > 1 | > 1 | C=CC(=O)Nc1ccccc1Nc1nc(Nc2ccc(NC(=O)CCCC(=O)NCCCOCCOCCOCCCNC(=O)CCCC[C@H]3SC[C@H]4NC(=O)N[C@H]43)cc2OC)ncc1Cl [Compound I-301, N^1-(4-((4-((2-acrylamidophenyl)amino)-5-chloropyrimidin-2-yl)amino)-3-methoxyphenyl)-N^5-(15-oxo-19-((3aR,4R,6aS)-2-oxohexahydro-1H-thieno[3,4-d]imidazol-4-yl)-4,7,10-trioxa-14-azanonadecyl)glutaramide]

Second part, the molecule before the results:

Structure (SMILES) | IC50 (MEK1 activated ERK1) [µM] | EC50 [1] [µM] | GI50 [2] [µM]
C=CC(=O)Nc1cc(OC)ccc1Nc1nc(Nc2ccc3c(c2)CC(=O)N3CC)ncc1Cl [Compound I-166, N-(2-((5-chloro-2-((1-ethyl-2-oxoindolin-5-yl)amino)pyrimidin-4-yl)amino)-5-methoxyphenyl)acrylamide] | 0.101 to 0.5 | 0.101 to 0.5 | 0.101 to 0.5
C=CC(=O)Nc1cc(F)ccc1Nc1nc(N[C@@H]2CCC[C@H](C(N)=O)C2)ncc1C(F)(F)F (racemic) [Compound I-5, Rac-cis-3-((4-((2-acrylamido-4-fluorophenyl)amino)-5-(trifluoromethyl)pyrimidin-2-yl)amino)cyclohexanecarboxamide] | < 0.1 | 0.101 to 0.5 | 0.101 to 0.5
C=CC(=O)Nc1ccccc1Nc1nc(N[C@H]2CCCNC2)ncc1Cl [Compound I-126, (S)—N-(2-((5-chloro-2-(piperidin-3-ylamino)pyrimidin-4-yl)amino)phenyl)acrylamide] | 0.101 to 0.5 | 0.501 to 0.999 | 0.501 to 0.999
C=CC(=O)Nc1cc(OC)ccc1Nc1nc(Nc2ccc(N(CC)C(C)=O)cc2C#N)ncc1Cl [Compound I-164, N-(2-((5-chloro-2-((2-cyano-4-(N-ethylacetamido)phenyl)amino)pyrimidin-4-yl)amino)-5-methoxyphenyl)acrylamide] | 0.101 to 0.5 | > 1 | > 1
C=CC(=O)Nc1ccccc1Nc1nc(N[C@H]2CCCN(C=O)C2)ncc1Cl [Compound I-122, (S)—N-(2-((5-chloro-2-((1-formylpiperidin-3-yl)amino)pyrimidin-4-yl)amino)phenyl)acrylamide] | < 0.1 | < 0.1 | 0.101 to 0.5
C=CC(=O)Nc1ccccc1Nc1nc(NC2CCN(C=O)CC2)ncc1C(F)(F)F [Compound I-11, N-(2-((2-((1-formylpiperidin-4-yl)amino)-5-(trifluoromethyl)pyrimidin-4-yl)amino)phenyl)acrylamide] | 0.101 to 0.5 | 0.101 to 0.5 | 0.101 to 0.5
C=CC(=O)Nc1ccccc1Nc1nc(NC2CCC(F)(F)CC2)ncc1Cl [Compound I-127, N-(2-((5-chloro-2-((4,4-difluorocyclohexyl)amino)pyrimidin-4-yl)amino)phenyl)acrylamide] | 0.101 to 0.5 | 0.101 to 0.5 | 0.101 to 0.5
C=CC(=O)Nc1ccccc1Nc1nc(NC2CCN(C(C)=O)CC2)ncc1Cl [Compound I-116, N-(2-((2-((1-acetylpiperidin-4-yl)amino)-5-chloropyrimidin-4-yl)amino)phenyl)acrylamide] | 0.101 to 0.5 | 0.101 to 0.5 | 0.101 to 0.5
C=CC(=O)Nc1ccccc1Nc1nc(NC2CCN(S(C)(=O)=O)CC2)ncc1Cl [Compound I-117, N-(2-((5-chloro-2-((1-(methylsulfonyl)piperidin-4-yl)amino)pyrimidin-4-yl)amino)phenyl)acrylamide] | 0.101 to 0.5 | 0.101 to 0.5 | 0.101 to 0.5
C=CC(=O)Nc1cc(F)ccc1Nc1nc(N[C@@H]2CCC[C@H](C(N)=O)C2)ncc1Cl (racemic) [Compound I-112, Rac-cis-3-((4-((2-acrylamido-4-fluorophenyl)amino)-5-chloropyrimidin-2-yl)amino)cyclohexanecarboxamide] | < 0.1 | < 0.1 | 0.101 to 0.5

From patent US9561228B2 (Celgene Avilomics Research, Inc., priority 2013, dated 2017)
